Data reported in US20260232666A1, “COMPOSITIONS AND METHODS FOR INHIBITION OF RAS” (TheRas, Inc., priority 2023, published 2026).

Tests used:
[1] = biological target: T1, GDP-loaded KRAS4b (amino acids 1-169) G12C/C118S protein (Homo sapiens, UniProt P01116, C118S/G12C); assay: Covalent cysteine 12 modification by MALDI-TOF MS, GDP-loaded KRAS G12C; assay type: binding; conditions: 15 minutes reaction time point
T1 construct: KRAS4b (amino acids 1-169) G12C/C118S protein; made in house
Summary of the method: (§1)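 With several adducts, each species' height is expressed as a fraction of all observed protein peaks, scored on linear-mode spectra. Reactions run at pH 7.3 (HEPES, 150 mM NaCl, 1 mM MgCl2), using 1 μM protein and a 1:2.5 protein:compound ratio, and are sampled after 15 minutes in the dark.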

[2] = biological target: T2, GTP-loaded KRAS4b (amino acids 1-169) G12C/C118S protein (Homo sapiens, UniProt P01116, C118S/G12C); assay: Covalent cysteine 12 modification by MALDI-TOF MS, GTP-loaded KRAS G12C; assay type: binding; conditions: 15 minutes reaction time point
T2 construct: KRAS4b (amino acids 1-169) G12C/C118S protein; made in house
Summary of the method: as §1

[3] = biological target: T3, Avi-KRAS G12C (1-169) GppNHp/RAF1 RBD-3×FLAG (52-151) (Homo sapiens, UniProt P01116, G12C); assay: Raf1 RBD-KRAS G12C-GppNHp disruption assay (protein:protein interaction HTRF); assay type: biochemical
T3 construct: Avi-KRAS G12C (1-169) GppNHp; Avi (N)
Summary of the method: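 HTRF measuring RAF1 RBD binding to GppNHp-loaded KRAS G12C (50 nM) in Tris pH 7.5, 100 mM NaCl, 5 mM MgCl2, 10% DMSO. Compound, KRAS, RBD and detection reagents each added sequentially with 1 h room-temperature incubations; 10-point titration; excitation 320 nm, emission 615 nm; activity as % of DMSO; IC50 derived.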

Row | Structure (SMILES) | GDP-KRAS G12C percent of modification [1] | GTP-KRAS G12C percent of modification [2] | IC50 [3]
1 | C=CC(=O)N1CC[C@@H](N(CC)c2nc(OC[C@@]34CCCN3C[C@H](F)C4)nc3c(F)c(-c4ccc(F)c5sc(N)c(C#N)c45)ccc23)[C@@H]1CC [Compound 50] | A (percent of modification ≥70%) | D (percent of modification <10%) | 500 to 5000 nM
2 | C=CC(=O)N1CC[C@@H](N(CC)c2nc(OC[C@@H]3C[C@@H](F)CN3C)nc3c(F)c(-c4ccc(F)c5sc(N)c(C#N)c45)c(C(F)(F)F)cc23)[C@H]1C [Compound 52] | C (10%≤percent of modification <50%) | A (percent of modification ≥70%) | < 500 nM
3 | C=CC(=O)N1CC[C@@H](N(C)c2nc(OC[C@@H]3C[C@@H](F)CN3C)nc3c(F)c(-c4ccc(F)c5sc(N)c(C#N)c45)c(C(F)(F)F)cc23)[C@H]1C [Compound 55] | A (percent of modification ≥70%) | A (percent of modification ≥70%) | < 500 nM
4 | C=CC(=O)N1CC[C@@H](N(CC)c2nc(OC[C@@]34CCCN3C[C@H](F)C4)nc3cc(-c4ccc(F)c5sc(N)c(C#N)c45)c(C#N)cc23)[C@@H]1C [Compound 56] | A (percent of modification ≥70%) | C (10%≤percent of modification <50%) | < 500 nM
5 | C=CC(=O)N1CC[C@@H](N(CC)c2nc(OC[C@@]34CCCN3C[C@H](F)C4)nc3c(F)c(-c4ccc(F)c5sc(N)c(C#N)c45)ccc23)[C@@H]1C [Compound 57] | A (percent of modification ≥70%) | C (10%≤percent of modification <50%) | < 500 nM
6 | C=CC(=O)N1CC[C@@H](N(CC)c2nc(OC[C@@H]3CCCN3C)nc3c(F)c(-c4ccc(F)c5sc(N)c(C#N)c45)c(Cl)cc23)[C@H]1C [Compound 58] | A (percent of modification ≥70%) | A (percent of modification ≥70%) | < 500 nM
7 | C=CC(=O)N1CC[C@@H](N(CC)c2nc(OC[C@@H]3C[C@@H](F)CN3C)nc3c(F)c(-c4ccc(F)c5sc(N)c(C#N)c45)c(Cl)cc23)[C@H]1C [Compound 60] | C (10%≤percent of modification <50%) | B (50≤percent of modification <70%) | < 500 nM
8 | C=CC(=O)N1CC[C@@H](N(C)c2nc(OC[C@@H]3C[C@@H](OC)CN3C)nc3c(F)c(-c4ccc(F)c5sc(N)c(C#N)c45)c(Cl)cc23)[C@H]1C [Compound 63, 4-(4-(((2R,3R)-1-acryloyl-2-methylpyrrolidin-3-yl)(methyl)amino)-6-chloro-8-fluoro-2-(((2S,4R)-4-methoxy-1-methylpyrrolidin-2-yl)methoxy)quinazolin-7-yl)-2-amino-7-fluorobenzo[b]thiophene-3-carbonitrile] | A (percent of modification ≥70%) | B (50≤percent of modification <70%) | < 500 nM
9 | C=CC(=O)N1CC[C@@H](N(C)c2nc(OC[C@@H]3CCCN3C)nc3c(F)c(-c4ccc(F)c5sc(N)c(C#N)c45)c(C(F)(F)F)cc23)[C@H]1C [Compound 67] | A (percent of modification ≥70%) | A (percent of modification ≥70%) | < 500 nM
10 | C=CC(=O)N1CC[C@@H](N(CC)c2nc(OC[C@@H]3C[C@@H](OC)CN3C)nc3c(F)c(-c4ccc(F)c5sc(N)c(C#N)c45)c(Cl)cc23)[C@H]1C [Compound 73] | B (50≤percent of modification <70%) | C (10%≤percent of modification <50%) | < 500 nM
11 | C=CC(=O)N1CC[C@@H](N(CC)c2nc(OC[C@@H]3CC4(CC4)CN3C)nc3c(F)c(-c4ccc(F)c5sc(N)c(C#N)c45)c(Cl)cc23)[C@H]1C [Compound 75] | A (percent of modification ≥70%) | A (percent of modification ≥70%) | < 500 nM
12 | C=CC(=O)N1CC[C@@H](N(CC)c2nc(OC[C@@]34CCCN3C[C@H](F)C4)nc3cc(-c4ccc(F)c5sc(N)c(C#N)c45)c(F)cc23)[C@H]1CC [Compound 76] | A (percent of modification ≥70%) | B (50≤percent of modification <70%) | < 500 nM
13 | C=CC(=O)N1CC[C@@H](N(CC)c2nc(OC[C@@]34CCCN3C[C@H](F)C4)nc3c(F)c(-c4ccc(F)c5sc(N)c(C#N)c45)c(Cl)cc23)[C@@H]1C [Compound 77] | A (percent of modification ≥70%) | A (percent of modification ≥70%) | < 500 nM
14 | C=CC(=O)N1CC[C@@H](N(C)c2nc(OC[C@@]34CCCN3C[C@H](F)C4)nc3c(F)c(-c4nc(N)cc(C)c4C(F)(F)F)c(Cl)cc23)[C@H]1C [Compound 78, 1-[(2R,3R)-3-[[7-[6-amino-4-methyl-3-(trifluoromethyl)-2-pyridyl]-6-chloro-8-fluoro-2-[[(2R,8S)-2-fluoro-1,2,3,5,6,7-hexahydropyrrolizin-8-yl]methoxy]quinazolin-4-yl]-methyl-amino]-2-methyl-pyrrolidin-1-yl]prop-2-en-1-one] | A (percent of modification ≥70%) | A (percent of modification ≥70%) | < 500 nM
15 | C=CC(=O)N1CC[C@@H](N(C)c2nc(N3CC(N(C)C)C3)nc3c(F)c(-c4ccc(F)c5sc(N)c(C#N)c45)c(C(F)(F)F)cc23)[C@H]1C [Compound 80] | B (50≤percent of modification <70%) | C (10%≤percent of modification <50%) | < 500 nM
16 | C=CC(=O)N1CC[C@@H](N(C)c2nc(OC[C@@H]3C[C@@H](F)CN3C)nc3c(F)c(-c4ccc(F)c5sc(N)c(C#N)c45)c(Cl)cc23)[C@@H]1C [Compound 82] | B (50≤percent of modification <70%) | C (10%≤percent of modification <50%) | < 500 nM
17 | C=CC(=O)N1CC[C@@H](N(C)c2nc(OC[C@@H]3CCCN3C)nc3c(F)c(-c4ccc(F)c5sc(N)c(C#N)c45)c(Cl)cc23)[C@@H]1C [Compound 83] | A (percent of modification ≥70%) | B (50≤percent of modification <70%) | < 500 nM
18 | C=CC(=O)N1CC[C@@H](N(CC)c2nc(OC[C@@]34CCCN3C[C@H](F)C4)nc3c(F)c(-c4ccc(F)c5sc(N)c(C#N)c45)c(C(F)(F)F)cc23)[C@@H]1C [Compound 86] | A (percent of modification ≥70%) | B (50≤percent of modification <70%) | < 500 nM
19 | C=CC(=O)N1CC[C@@H](N(C)c2nc(OCC3(CN4CCOCC4)CC3)nc3c(F)c(-c4ccc(F)c5sc(N)c(C#N)c45)c(C(F)(F)F)cc23)[C@H]1C [Compound 87] | C (10%≤percent of modification <50%) | C (10%≤percent of modification <50%) | < 500 nM
20 | C=CC(=O)N1CC[C@@H](N(C)c2nc(OC[C@@H]3CCCN3CC)nc3c(F)c(-c4ccc(F)c5sc(N)c(C#N)c45)c(C(F)(F)F)cc23)[C@H]1C [Compound 88] | B (50≤percent of modification <70%) | B (50≤percent of modification <70%) | < 500 nM
21 | C=CC(=O)N1CC[C@@H](N(C)c2nc(OC[C@@]34CCCN3C[C@H](F)C4)nc3c(F)c(-c4ccc(F)c5oc(N)c(C#N)c45)c(C(F)(F)F)cc23)[C@H]1C [Compound 90] | B (50≤percent of modification <70%) | C (10%≤percent of modification <50%) | < 500 nM
22 | C=CC(=O)N1CC[C@@H](N(C)c2nc(OC[C@@]34CCCN3C[C@H](F)C4)nc3c(F)c(-c4nc(N)cc(C)c4C(F)(F)F)c(C(F)(F)F)cc23)[C@@H]1C [Compound 91] | A (percent of modification ≥70%) | C (10%≤percent of modification <50%) | < 500 nM
